According to article PMC3711671 (Nature chemical biology, 2012):

Tests used:
PKM2 in A549 cells = PKM2 in A549 cells (Homo sapiens, UniProt P14618); experiment: Size exclusion chromatography of cell lysates; assay type: cell-based; details: 100 μM pervanadate for 10 min
[1] = biological target: recombinant PKM2 monomers and tetramers (Homo sapiens, UniProt P14618); assay type: biochemical; details: 100 µM FBP
recombinant PKM2 monomers and tetramers, sequence (P14618 whole entry): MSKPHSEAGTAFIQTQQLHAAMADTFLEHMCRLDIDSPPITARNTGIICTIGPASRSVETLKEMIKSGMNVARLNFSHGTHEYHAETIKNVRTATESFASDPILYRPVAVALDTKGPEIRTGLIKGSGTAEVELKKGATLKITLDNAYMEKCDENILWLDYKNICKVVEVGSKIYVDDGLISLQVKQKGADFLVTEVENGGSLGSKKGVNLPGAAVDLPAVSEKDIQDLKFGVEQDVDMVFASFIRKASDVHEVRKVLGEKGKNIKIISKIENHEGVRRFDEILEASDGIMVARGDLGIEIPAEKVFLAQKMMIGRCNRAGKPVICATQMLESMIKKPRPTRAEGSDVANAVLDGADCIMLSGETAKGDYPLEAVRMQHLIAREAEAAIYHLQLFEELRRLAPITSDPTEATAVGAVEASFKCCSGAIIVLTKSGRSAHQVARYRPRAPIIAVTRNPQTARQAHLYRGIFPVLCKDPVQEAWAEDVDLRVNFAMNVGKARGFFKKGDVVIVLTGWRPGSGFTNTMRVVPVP

PKM2 in A549 cells, sequence (P14618 2-531 limits assumed): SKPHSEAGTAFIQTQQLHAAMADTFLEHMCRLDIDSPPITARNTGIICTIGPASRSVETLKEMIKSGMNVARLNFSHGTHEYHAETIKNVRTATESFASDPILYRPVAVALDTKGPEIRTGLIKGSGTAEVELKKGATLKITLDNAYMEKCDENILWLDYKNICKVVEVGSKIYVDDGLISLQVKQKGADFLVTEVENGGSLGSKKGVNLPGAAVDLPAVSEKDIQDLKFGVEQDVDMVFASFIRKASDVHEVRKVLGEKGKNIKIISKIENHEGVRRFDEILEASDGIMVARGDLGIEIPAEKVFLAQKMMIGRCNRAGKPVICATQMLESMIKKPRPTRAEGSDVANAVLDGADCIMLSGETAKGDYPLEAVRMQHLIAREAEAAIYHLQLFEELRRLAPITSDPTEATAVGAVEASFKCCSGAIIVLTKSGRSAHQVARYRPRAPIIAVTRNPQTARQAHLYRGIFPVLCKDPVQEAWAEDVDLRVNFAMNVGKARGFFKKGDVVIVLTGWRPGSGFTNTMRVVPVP

Pervanadate
PKM2 subunit stoichiometry in cells after pervanadate (PKM2 in A549 cells): disappearance of PKM2 tetramers

O=C(COP(=O)(O)O)[C@@H](O)[C@H](O)[C@H](O)COP(=O)(O)O [FBP, fructose-1,6-bisphosphate]
effect on PKM2 tetramer activity [1]: minimal effects | increase of activity of PKM2 monomers [1]: approximately 70%
